Where a SMILES comes first, the peptide text is derived from it. Bridges are numbered along the chain shown (N, C = ends). Roman numbers before positions name the chains, in order. Where no end group is shown, it is not given here. [ ]: non-standard residue; d: D form. Ahx = NCCCCCC(=O)O
Columns and labels:
[1] = target: BCL-2 (Homo sapiens, UniProt P10415); conditions: Letai et al., Cancer Cell 2:183-192 (2002); cited from earlier work
[2] = system: chronic lymphocytic leukemia (CLL) cells; assay: viability/apoptosis of CLL cells electroporated with peptides (Annexin V-FITC/PI flow cytometry); type: cell-based, human; conditions: for cell viability (Induction of Apoptosis in CLL Cells), patient sample JCB 178: CLL patient sample JCB 178; for cell viability (Induction of Apoptosis in CLL Cells), patient sample JCB 178 / cell viability (Induction of Apoptosis in CLL Cells), patient sample MA G15 / cell viability (Induction of Apoptosis in CLL Cells), patient sample TJK 328 / cell viability (Induction of Apoptosis in CLL Cells), patient sample TJK 340 #1 / cell viability (Induction of Apoptosis in CLL Cells), patient sample TJK 340 #2 / cell viability (Induction of Apoptosis in CLL Cells), patient sample TJK 375 / cell viability (Induction of Apoptosis in CLL Cells), Av.: peptide electroporated; for cell viability (Induction of Apoptosis in CLL Cells), patient sample TJK 328: CLL patient sample TJK 328; for cell viability (Induction of Apoptosis in CLL Cells), patient sample TJK 340 #1: CLL patient sample TJK 340 #1; for cell viability (Induction of Apoptosis in CLL Cells), patient sample TJK 340 #2: CLL patient sample TJK 340 #2; for cell viability (Induction of Apoptosis in CLL Cells), patient sample TJK 375: CLL patient sample TJK 375; for cell viability (Induction of Apoptosis in CLL Cells), Av.: average of the five preceding patient sample columns; for cell viability of CLL cells / cell viability in all the patient CLL samples: electroporated peptide; for cell viability of CLL cells: FIG. 2; for cell viability in all the patient CLL samples: summary of Table 4
From the text: Peripheral blood mononuclear cells (PBMC) from patients with chronic lymphocytic leukemia (CLL) were obtained from the CLL Research Consortium (CRC) tissue bank. Briefly, heparinized peripheral blood was obtained from patients diagnosed with B-CLL according to standard criteria (Chenson et al., Blood 87:4990-4997 (1996)). Lymphocytes were isolated by Ficoll density-gradient centrifugation and verified by immunofluorescence flow cytometry to be composed of greater than 95% CD5/CD19/CD23 triple positive B cells. […] CLL cells were electroporated with a dimethyl sulfoxide (DMSO) control or peptides essentially as described in […] et al., J. Immunol. Methods 275:41-56 (2003), and […] et al., Cancer Res. 63:1242-1248 (2003). For evaluation of apoptosis, at least 5×10^5 cells were recovered by centrifugation and double-stained with Annexin V-FITC, an early marker of apoptosis, and propidium iodide (PI), a nucleic acid-binding vital dye, followed by flow-cytometric analysis using the FL-1 and FL-3 channels of a Becton Dickinson flow cytometer (FACSort; San Jose, Calif.).

[3] = Letai et al., Cancer Cell 2:183-192 (2002); cited from earlier work
[4] = system: Bcl-2; assay: BD Cytometric Bead Assay of Bcl-2 levels in peptide treated CLL cells; type: cell-based, human; conditions: TJK160 and TJK357 CLL patient cells, incubated with peptide for four hours, FIG. 5
Description: TJK160 and TJK357 CLL patient cells were treated with the modified BAD peptide SEQ ID NO: 6 or with control peptides SEQ ID NO: 29 and SEQ ID NO: 30 essentially as described above. To determine the levels of Bcl-2 in each of the peptide treated CLL samples, a BD™ Cytometric Bead Assay (BD CBA; BD Biosciences) was used to quantitatively measure active caspase-3, cleaved PARP and Bcl-2 levels in a single sample. In this assay, soluble analytes are measured using amplified fluorescence detection and flow cytometry, with each bead in a CBA providing a capture surface for a specific protein and being analogous to an individually coated well in an ELISA plate. A single bead population with a distinct fluorescence intensity is coated with a capture antibody specific for active caspase-3 protein, cleaved PARP protein or Bcl-2 protein and subsequently resolved in the FL3 channel of a BD FACSTM brand flow cytometer. The capture bead, PE-conjugated detection antibody, and cell lysate standard or test samples are incubated together to form sandwich complexes and analyzed using BD CBA Analysis Software. Cells were lysed in 1× CBA Cell Lysis Buffer supplemented with Protease Inhibitor Cocktail according to the manufacturer's protocol. Human active caspase-3, cleaved PARP and Bcl-2 lysate standards were reconstituted in deionized water at room temperature for 15 minutes. The standard was diluted by serial dilutions using assay diluent according to the manufacturer's protocol. Capture beads were vortexed before use, and 50 μl of capture beads were transferred to each assay tube. Standard dilutions and test samples were added to the appropriate sample tubes (50 μl/tube) and incubated at room temperature for one hour. […] After addition of 300 μl of Wash Buffer, samples were analyzed by the BD FACScan or BD FACSCalibur. Samples were analyzed by the use of BD CellQuest Software, and data were acquired by the use of the BD CBA Software. […]

[5] = system: CLL cells; assay: CLL cell viability, cell permeable peptides added directly to culture without electroporation; type: cell-based, human; conditions: for change in viability: TJK197 patient CLL cells, FIG. 4
From the text: Peripheral blood mononuclear cells (PBMC) from patients with chronic lymphocytic leukemia (CLL) were obtained from the CLL Research Consortium (CRC) tissue bank. Briefly, heparinized peripheral blood was obtained from patients diagnosed with B-CLL according to standard criteria (Chenson et al., Blood 87:4990-4997 (1996)). Lymphocytes were isolated by Ficoll density-gradient centrifugation and verified by immunofluorescence flow cytometry to be composed of greater than 95% CD5/CD19/CD23 triple positive B cells. CLL samples were incubated at 1×10^6 cells/ml in RPMI media supplemented with 10% FBS (fetal bovine serum) and 1 mM L-glutamine and antibiotics (penicillin/streptomycin) at 37° C. with 5% CO2 for 24 hours. CLL cells were electroporated with a dimethyl sulfoxide (DMSO) control or peptides essentially as described in Eksioglu-Demiralp et al., J. Immunol. Methods 275:41-56 (2003), and Schimmer et al., Cancer Res. 63:1242-1248 (2003).
For evaluation of apoptosis, at least 5×10^5 cells were recovered by centrifugation and double-stained with Annexin V-FITC, an early marker of apoptosis, and propidium iodide (PI), a nucleic acid-binding vital dye, followed by flow-cytometric analysis using the FL-1 and FL-3 channels of a Becton Dickinson flow cytometer (FACSort; San Jose, Calif.).
The wild type and modified BAD peptides fused to poly-arginine cell penetration sequences shown in Table 5 were synthesized by standard solid phase synthesis. CLL cell viability assays were performed as described above except that cell permeable peptides SEQ ID NOS: 28, 6 and 29 and the control, non-permeable peptide SEQ ID NO: 3 (see Table 5) were added directed to CLL cells in culture without electroporation.

[6] = target: Bcl-2 family Bcl-2/x1 (Homo sapiens, UniProt P10415); assay: binding of penetratin-linked peptides to Bcl-2 (method not described)
[7] = system: acute myelogenous leukemia (AML) cells; assay: cell viability/apoptosis in patient AML cells; type: cell-based, human
Description: (§1) The peptides were tested in cell viability assays essentially as described above in Examples I and II. Experiments were carried out in 697-neo and 697-Bcl-2 cells. 697 cells are from a cell line of preB leukemic cells. 697-Bcl-2 cells have been engineered to express high levels of Bcl-2. AML-349 and AML-728 are myeloblasts (verified by FACS analysis via CD34-positivity) that were isolated from respective patients with acute myelogenous leukemia (AML).

[8] = system: 697-neo cells; assay: cell viability assay in 697-neo cells; type: cell-based; conditions: low Bcl-2, FIG. 6
Description: as §1

[9] = target: T1, Bcl-2 (UniProt P10415 1-239, limits assumed); assay: inferred from cell viability of 697-neo against 697-Bcl2 cells
T1 construct: also called Bcl-2 protein
T1 sequence (P10415 whole entry): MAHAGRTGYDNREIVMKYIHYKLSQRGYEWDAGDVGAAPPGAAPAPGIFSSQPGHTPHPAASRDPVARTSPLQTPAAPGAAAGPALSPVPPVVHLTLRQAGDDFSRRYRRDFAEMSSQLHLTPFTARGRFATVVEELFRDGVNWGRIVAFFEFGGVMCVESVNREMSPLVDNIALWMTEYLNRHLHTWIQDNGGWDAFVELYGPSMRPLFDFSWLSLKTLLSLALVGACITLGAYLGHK

Sequence of BCL-2 (P10415 whole entry, species assumed): as the sequence (P10415 whole entry) above
Sequence of Bcl-2 family Bcl-2/x1 (P10415 1-205): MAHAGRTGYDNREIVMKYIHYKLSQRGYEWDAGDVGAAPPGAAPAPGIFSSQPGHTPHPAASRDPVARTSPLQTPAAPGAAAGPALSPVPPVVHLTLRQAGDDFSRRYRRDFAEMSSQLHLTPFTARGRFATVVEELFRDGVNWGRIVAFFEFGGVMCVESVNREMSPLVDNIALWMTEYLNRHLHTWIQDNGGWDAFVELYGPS

Molecule: CSCC[C@H](NC(=O)[C@H](CCCNC(=N)N)NC(=O)[C@H](CCCNC(=N)N)NC(=O)[C@H](CC(C)C)NC(=O)[C@H](CCC(=O)O)NC(=O)[C@H](CCCNC(=N)N)NC(=O)CNC(=O)[C@H](Cc1ccc(O)cc1)NC(=O)[C@H](CCCNC(=N)N)NC(=O)[C@H](CCC(N)=O)NC(=O)[C@H](C)NC(=O)[C@H](C)NC(=O)[C@H](Cc1c[nH]c2ccccc12)NC(=O)[C@H](CC(C)C)NC(=O)[C@@H](N)CC(N)=O)C(=O)N[C@@H](CO)C(=O)N[C@@H](CC(=O)O)C(=O)N[C@@H](CCC(=O)O)C(=O)N[C@@H](Cc1ccccc1)C(=O)N[C@H](C(=O)N[C@@H](CC(=O)O)C(=O)N[C@@H](CO)C(=O)N[C@@H](Cc1ccccc1)C(=O)N[C@@H](CCCCN)C(=O)N[C@@H](CCCCN)C(=O)O)C(C)C [SEQ ID NO: 1]
- Kd [1]: ~40 nM
- cell viability (Induction of Apoptosis in CLL Cells), patient sample JCB 178 [2]: 45%
- cell viability (Induction of Apoptosis in CLL Cells), patient sample MA G15 [2]: 4%
- cell viability (Induction of Apoptosis in CLL Cells), patient sample TJK 328 [2]: 42%
- cell viability (Induction of Apoptosis in CLL Cells), patient sample TJK 340 #1 [2]: 46%
- cell viability (Induction of Apoptosis in CLL Cells), patient sample TJK 340 #2 [2]: 56%
- cell viability (Induction of Apoptosis in CLL Cells), patient sample TJK 375 [2]: 47%
- cell viability (Induction of Apoptosis in CLL Cells), Av. [2]: 47%
- cell viability of CLL cells [2]: minimal or insignificant changes in viability
- cell viability in all the patient CLL samples [2]: minimally effected
- apoptotic activity [3]: does not have apoptotic activity

Molecule: CSCC[C@H](NC(=O)[C@H](CCCNC(=N)N)NC(=O)[C@H](CCCNC(=N)N)NC(=O)[C@H](CC(C)C)NC(=O)[C@H](CCC(=O)O)NC(=O)[C@H](CCCNC(=N)N)NC(=O)CNC(=O)[C@H](Cc1ccc(O)cc1)NC(=O)[C@H](CCCNC(=N)N)NC(=O)[C@H](CCC(N)=O)NC(=O)[C@H](C)NC(=O)[C@H](C)NC(=O)[C@H](Cc1c[nH]c2ccccc12)NC(=O)[C@H](CC(C)C)NC(=O)[C@@H](N)CC(N)=O)C(=O)N[C@@H](C)C(=O)N[C@@H](CC(=O)O)C(=O)N[C@@H](CCC(=O)O)C(=O)N[C@@H](Cc1ccccc1)C(=O)N[C@H](C(=O)N[C@@H](CC(=O)O)C(=O)N[C@@H](C)C(=O)N[C@@H](Cc1ccccc1)C(=O)N[C@@H](CCCCN)C(=O)N[C@@H](CCCCN)C(=O)N[C@@H](CS)C(=O)NCCCCCC(=O)N[C@H](CCCNC(=N)N)C(=O)N[C@H](CCCNC(=N)N)C(=O)N[C@H](CCCNC(=N)N)C(=O)N[C@H](CCCNC(=N)N)C(=O)N[C@H](CCCNC(=N)N)C(=O)N[C@H](CCCNC(=N)N)C(=O)N[C@H](CCCNC(=N)N)C(=O)N[C@H](CCCNC(=N)N)C(=O)O)C(C)C [SEQ ID NO: 6] (H-NLWAAQRYGRELRRMADEFVDAFKKC[Ahx][dR][dR][dR][dR][dR][dR][dR][dR]-OH; N-terminus and C-terminus assumed)
- intracellular levels of Bcl-2 [4]: significant reduction in intracellular levels of Bcl-2
- cell viability, dose response ([5]; patient TJK379 CLL cells, FIG. 3): dose-dependent decrease in cell viability
- percentage cell viability ([5]; patient TJK379 CLL cells, as little as 15 μM peptide): dramatically reduced

Molecule: AVPIAQK-Ahx-(DArg)8 (AVPIAQK[Ahx][dR][dR][dR][dR][dR][dR][dR][dR]) [SEQ ID NO: 30, control peptide with poly(DArg)]
- intracellular levels of Bcl-2 [4]: not observed

Molecule: NLWAAQRYGREARRMAAEFVDAFKK [SEQ ID NO: 4]
- cell viability (Induction of Apoptosis in CLL Cells), patient sample JCB 178 [2]: 38%
- cell viability (Induction of Apoptosis in CLL Cells), patient sample MA G15 [2]: 20%
- cell viability (Induction of Apoptosis in CLL Cells), patient sample TJK 328 [2]: 26%
- cell viability (Induction of Apoptosis in CLL Cells), patient sample TJK 340 #1 [2]: 46%
- cell viability (Induction of Apoptosis in CLL Cells), patient sample TJK 340 #2 [2]: 45%
- cell viability (Induction of Apoptosis in CLL Cells), patient sample TJK 375 [2]: 48%
- cell viability (Induction of Apoptosis in CLL Cells), Av. [2]: 41%
- cell viability of CLL cells [2]: minimal or insignificant changes in viability
- cell viability in all the patient CLL samples [2]: minimally effected

Molecule: NLWAAQRYGREARRMAAEFVDAFKKC-Ahx-(DArg)8 (NLWAAQRYGREARRMAAEFVDAFKKC[Ahx][dR][dR][dR][dR][dR][dR][dR][dR]) [SEQ ID NO: 29, control BAD peptide with poly(DArg)]
- intracellular levels of Bcl-2 [4]: not observed
- change in viability [5]: no change in viability

Molecule: NLWAAQRYGRELRRMSDEFVDSFKKC-Ahx*-(DArg)8 (NLWAAQRYGRELRRMSDEFVDSFKKC[Ahx][dR][dR][dR][dR][dR][dR][dR][dR]) [SEQ ID NO: 28]
- change in viability [5]: no change in viability
- effect on cell viability ([5]; patient TJK379 CLL cells, even at 50 μM): negligible effect
- cell viability of cancer cells (concluding statement) ([5]; poly-arginine fused peptide, CLL cells): dramatically reduce cell viability

Molecule: acetyl-NLWAAQRYGRELRRMADEFVDAFKKC-CRQIKIWFQNRRMKWKK-amide [2336] (D-residues; cyclised or stapled) [compound 2336]
- binding to Bcl-2 [6]: does not bind Bcl-2 family Bcl-2/x1
- induction of apoptosis / killing ([7]; AML cells of patient AML-349, FIG. 9): showed less killing
- induction of apoptosis ([7]; AML cells of patient AML-728, FIG. 8): does not
- activity in reducing cell viability [8]: significantly less active than the 2335 peptide

B1: 2335 peptide, acetyl-NLWAAQRYGRELRRMADEFVDAFKKC-CRQIKIWFQNRRMKWKK-amide (SEQ ID NO: 31) (peptide)
peptide 1: Ac-NLWAAQRYGRELRRMADEFVDAFKKC
peptide 2: CRQIKIWFQNRRMKWKK-NH2
modifications: disulfide I:26-II:1
notes: C-C is a disulfide between two peptides, so it is written here as two chains; also called Bad S/A peptide disulfide linked to penetratin; BAD-BH3 peptide
- binding result [9]: binds

Source: US20060198832A1, “Peptide drugs for chronic lymphocytic leukemia (CLL) and other cancers” (priority 2004, published 2006)
